Data taken from patent US11535754B2, “Silicon containing detectable compounds and uses thereof” (Singular Genomics Systems, Inc., priority 2019, dated 2022).

Experiment: Absorption maximum (λmax) of the azasiline dyes, from the HPLC / LC-MS absorption profile
Type: physicochemical
Conditions: absorption profile from HPLC/LC-MS analysis (FIGS. 1A-1B: 100 mM TEAA and ACN); value for compound 4 from initial attempts to quantify the absorption
Method: FIGS. 1A-1B. Absorption profile for compound 2 (FIG. 1A) and compound 3 (FIG. 1B), as described herein: HPLC chromatogram of the reaction mixture with 100 mM triethylammonium acetate (TEAA) and acetonitrile (ACN).
A mixture of 1a (0.155 mmol) and hydrochloric acid (0.053 mL) in absolute ethanol (1.6 mL) was cooled to 0° C., to which a solution of sodium nitrite (12.1 mg in 0.107 mL) in water was added and stirred for 3 hours after which the solid (dark green crystals) was filtered off. It was diluted with ethanol (1 mL) and 0.02 mL of 1N HCl was added to the mixture. The resulting mixture was refluxed for 4 hours. The progress of the reaction was monitored by HPLC using triethylammonium acetate (TEAA) and acetonitrile (ACN) as the mobile phases on reverse phase (RP) C18 column. The formation of the product was confirmed by mass analysis and HPLC analysis based on the wavelength (see FIG. TA). […]
Synthesis of compound 3. […] The reaction mixture was stirred for overnight and the progress of the reaction was monitored by LC-MS analysis to generate compound 3 (λmax 810 nm); see FIG. 1B.
Synthesis of compound 4. […] The reaction mixture was stirred for overnight and the progress of the reaction was monitored by LC-MS analysis to generate and confirm the presence of compound 4.

## CN1CCCc2cc3c(cc21)[Si](C)(C)c1cc2c(cc1=N3)CCC[N+]=2C [compound 4]
  absorption maximum (λmax): greater than 850 nm
